Where two headings read alike, the source gives them in different places.
Assays:
[1] = test system: Staphylococcus aureus, methicillin susceptible; assay: Standard microdilution susceptibility test, clinical isolates; type: cell-based; conditions: 10 clinical isolates
[2] = test system: Staphylococcus aureus, methicillin resistant; assay: as above; type: cell-based; conditions: 10 clinical isolates
[3] = test system: Coagulase-negative Staphylococus sp., methicillin susceptible; assay: as above; type: cell-based; conditions: 10 clinical isolates
[4] = test system: Enterococcus sp., decreased vancomycin susceptibility; assay: as above; type: cell-based; conditions: 5 clinical isolates
[5] = test system: Streptococcus pneumoniae, penicillin resistant; assay: as above; type: cell-based
[6] = test system: Streptococcus viridans sp.; assay: as above; type: cell-based; conditions: 20 clinical isolates
[7] = test system: E. casseliflavus; assay: Microdilution MIC, Enterococcus isolates with van resistance genes; type: cell-based
Procedure: (§1) Identification and characterization of resistance patterns of these bacteria were performed by standard methods.
(§2) When forming the test groups we attached great importance to the increasing incidence of drug-resistant microbes causing therapeutic problems. Most important of them are methicillin-resistant Staphylococcus aureus (MRSA), methicillin-resistant coagulase-negative Staphylococcus spp. (MRCoNS), penicillin-resistant Streptococcus pneumoniae (pneumococcus), vancomycin-resistant Enterococcus spp. (VRE). Pneumococcus isolates represented various serotypes, VRE isolates belonged to various species. Moreover, vancomycin-resistance of VRE isolates was based on different genetic backgrounds. Antibiotic-resistant strains were also represented among international reference strains, for example methicillin-resistant Staphylococcus aureus ATCC 43300 (MRSA), Staphylococcus aureus with decreased vancomycin susceptibility ATCC 700698 and 700699 (vancomycin intermediate Staphylococcus aureus—VISA), mupirocin-resistant Staphylococcus aureus ATCC BAA1708 and vancomycin-resistant Enterococcus faecalis ATCC 51299 (VRE).
(§3) Susceptibility tests were performed according to the standard microdilution method (NCCLS (CLSI) M7-A7).
(§4) The lowest concentration at which no bacterial growth was observed after the incubation period is the Minimal Inhibitory Concentration (MIC). The MIC value is inversely proportional to the antimicrobial efficacy. MIC values of antimicrobial agents can differ by species or even by bacterial strains within species.

[8] = test system: E. faecalis; assay: as above; type: cell-based
Procedure: as §1, §2, §3, §4

[9] = test system: E. faecium; assay: as above; type: cell-based; conditions: resistance gene van B
Procedure: as §1, §2, §3, §4

[10] = test system: Bacillus subtilis ATCC 6633; assay: Microdilution MIC, ATCC reference strains; type: cell-based
Procedure: as §1, §2, §3, §4

[11] = test system: Escherichia coli ATCC 25922; assay: Microdilution MIC, ATCC reference strains; type: cell-based
Procedure: as §1, §2, §3, §4

[12] = test system: Staphylococcus aureus ATCC BAA1708 (mupirocin-resistant); assay: Microdilution MIC, ATCC reference strains; type: cell-based
Procedure: as §1, §2, §3, §4

[13] = test system: Staphylococcus aureus 7503; conditions: cited from earlier work
[14] = test system: Diphteroides 8264; conditions: cited from earlier work
[15] = test system: Staphylococcus saprophyticus 8454; conditions: cited from earlier work
[16] = test system: Serotype β Streptococcus 8252; conditions: cited from earlier work
[17] = test system: Streptococcus mitis 5728; conditions: cited from earlier work
[18] = test system: Staphylococcus hominis 7835; conditions: cited from earlier work
[19] = test system: Enterobacter cloacae B 520; conditions: cited from earlier work
[20] = test system: Propionibacterium acnes; conditions: cited from earlier work
[21] = test system: S. aureus; conditions: by Bryskier; cited from earlier work
[22] = test system: Staphylococcus epidermidis; conditions: by Bryskier; cited from earlier work
[23] = test system: Micrococcus; conditions: by Bryskier; cited from earlier work
[24] = test system: Coryneform(s); conditions: by Bryskier; cited from earlier work
[25] = test system: B. subtilis ATCC 6633; conditions: by Bryskier; cited from earlier work
[26] = test system: Escherichia coli; conditions: by Bryskier; cited from earlier work
[27] = test system: Propionibacterium acnes; conditions: by Bryskier; cited from earlier work
[28] = test system: S. aureus ATCC 25923; conditions: Uri and Actor 1979; cited from earlier work
[29] = test system: laboratory strain Listeria monocytogenes; conditions: Uri 1986; cited from earlier work
[30] = test system: erythromycin-resistant staphylococci; conditions: 71 strains; cited from earlier work
[31] = test system: Gram-negative species; conditions: Horváth 1979; the patent calls the statement unfounded; cited from earlier work
[32] = test system: enterococci and S. pyogenes; conditions: Bryskier 2005; cited from earlier work
[33] = test system: Bacillus spp. and Micrococcus spp.; conditions: Bryskier 2005; cited from earlier work
[34] = test system: Corynebacterium spp., Enterobacteriaceae species, Pseudomonas aeruginosa, yeasts and dermatophytes; conditions: Bryskier 2005; cited from earlier work

With Primycin the “MIC 50%” value [1] was 0.06 mg/L, the “MIC 90%” value [1] was 0.06 mg/L and the “MIC Range” value [1] was 0.06-0.06 mg/L. The “Ratio of Sensitive/Total” value [1] was 10/10, the “MIC 50%” value [2] was 0.06 mg/L and the “MIC 90%” value [2] was 0.06 mg/L. The “MIC Range” value [2] was 0.06-0.06 mg/L, the “Ratio of Sensitive/Total” value [2] was 10/10 and the “MIC 50%” value [3] was 0.03 mg/L. For the same substance, the “MIC 90%” value [3] was 0.06 mg/L, the “MIC Range” value [3] was 0.03 to 0.06 mg/L and the “Ratio of Sensitive/Total” value [3] was 10/10. The “MIC Range” value [4] was 0.25 to 0.5 mg/L, the “Ratio of Sensitive/Total” value [4] was 5/5 and the “MIC 50%” value ([5]; 10 clinical isolates) was 0.5 mg/L. The “MIC 90%” value ([5]; 10 clinical isolates) was 1 mg/L, the “MIC Range” value ([5]; 10 clinical isolates) was 0.5 to 1 mg/L and the “Ratio of Sensitive/Total” value ([5]; 10 clinical isolates) was 10/10. For the same substance, the MIC ([5]; single isolate, serotype 23(F)) was 0.5 mg/L, the “MIC 50%” value [6] was 1 mg/L and the “MIC 90%” value [6] was 1 mg/L. The “MIC Range” value [6] was 0.5 to 1 mg/L, the “Ratio of Sensitive/Total” value [6] was 20/20 and the MIC ([7]; resistance gene van C1) was 0.5 mg/L. For the same substance, the MIC ([7]; resistance gene van C2) was 0.5 mg/L, the MIC ([8]; resistance gene van A) was 0.5 mg/L and the MIC ([8]; resistance gene van C1) was 0.5 mg/L. For the same substance, the MIC [9] was 0.25 mg/L, the “Primycin MIC” value [10] was 0.03 mg/L and the “Primycin MIC” value [11] was greater than 64 mg/L. The “Primycin MIC” value [12] was 0.06 mg/L, the MIC [13] was 0.39 mg/L and the MIC [14] was 50.0 mg/L. The MIC [15] was 0.39 mg/L, the MIC [16] was 1.56 mg/L and the MIC [17] was 50.0 mg/L. The MIC [18] was 0.39 mg/L, the MIC [19] was 50.0 mg/L and the MIC [20] was less than 0.1 mg/L. For the same substance, the MIC [21] was 0.39 mg/L, the MIC [22] was 0.78 mg/L and the MIC [23] was 0.78 mg/L. For the same substance, the MIC [24] was 50 mg/L, the MIC [25] was 0.39 mg/L and the MIC [26] was 50 mg/L. For the same substance, the MIC [27] was less than 0.1 mg/L, the “MIC (not inhibited at the highest concentration tested)” value [28] was greater than 2 µg/mL and the MIC [29] was 0.25 µg/mL. For the same substance, the “share of strains presenting primycin resistance” value [30] was 13%, the “MIC versus Gram-positives” value [31] was “hundred times higher” and the efficacy [32] was “moderate efficacy”. The efficacy [33] was “effective” and the efficacy [34] was “ineffective”.
